Assay results as given in patent US10398783B2, “Antiproliferative compounds and conjugates made therefrom” (BRISTOL-MYERS SQUIBB COMPANY, priority 2016, dated 2019).

Experiments:
Format in all cases: cell-based, human
[1] = tested on: mesothelioma (H226) cancer cell line; assay: 72 hr ATP luminescence cell proliferation inhibition assay, H226
Procedure: (§1) Proliferation inhibition was measured using a 72 hr ATP luminescence assay (Cheng et al., U.S. Pat. No. 8,394,922 B2 (2013)). The antiproliferative effects are reported as IC50's, i.e., the concentration of compound that produces a 50% inhibitory effect on cell proliferation.

[2] = tested on: gastric (stomach) cancer (N87) cell line; assay: 72 hr ATP luminescence cell proliferation inhibition assay, N87; conditions: N87 cells
Procedure: as §1

[3] = tested on: colon cancer (HCT116) cell line; assay: 72 hr ATP luminescence cell proliferation inhibition assay, HCT116
Procedure: as §1

[4] = tested on: ovarian cancer (OVCAR3) cell line; assay: 72 hr ATP luminescence cell proliferation inhibition assay, OVCAR3
Procedure: as §1

IC50 ([1]; H226 cells)	IC50 [2]	IC50 ([3]; HCT116 cells)	IC50 ([4]; OVCAR3 cells)	SMILES	IC50 ([1]; Homo sapiens, NCI-H226, H226 cells)	IC50 ([2]; Homo sapiens)	IC50 ([3]; Homo sapiens, HCT-116, HCT116 cells)	IC50 ([4]; Homo sapiens, OVCAR-3, OVCAR3 cells)
0.1 nM	0.09 nM	0.028 nM	0.16 nM	COC(=O)c1cc(NC(=O)c2cc(NC(=O)CCCOc3cc4c(cc3OC)C(=O)N3Cc5ccccc5C[C@H]3C=N4)cn2C)cn1C [(Ib-40)]				
0.083 nM	0.038 nM	0.022 nM	0.053 nM	COc1cc2c(cc1OCCCC(=O)Nc1cc(C(=O)Nc3ccccc3)n(C)c1)N=C[C@@H]1Cc3ccccc3CN1C2=O [(Ib-41)]				
0.27 nM	0.12 nM	0.13 nM	0.55 nM	COc1cc2c(cc1OCCCC(=O)Nc1cc(C(=O)Nc3cccnc3)n(C)c1)N=C[C@@H]1Cc3ccccc3CN1C2=O [(Ib-46)]				
0.13 nM	0.022 nM	0.019 nM	0.13 nM	COc1cc2c(cc1OCCCC(=O)Nc1cc(C(=O)Nc3ccc(Cl)nc3)n(C)c1)N=C[C@@H]1Cc3ccccc3CN1C2=O [(Ib-47)]				
0.018 nM	< 0.004 nM	0.004 nM	0.045 nM	COC(=O)c1cc(-c2ccc(NC(=O)c3nc(NC(=O)CCCOc4cc5c(cc4OC)C(=O)N4Cc6ccccc6C[C@H]4C=N5)cn3C)cc2)cn1C [(Ib-55)]				

Second part, the compound before the results:

SMILES	IC50 ([1]; H226 cells)	IC50 [2]	IC50 ([3]; HCT116 cells)	IC50 ([4]; OVCAR3 cells)	IC50 ([1]; Homo sapiens, NCI-H226, H226 cells)	IC50 ([2]; Homo sapiens)	IC50 ([3]; Homo sapiens, HCT-116, HCT116 cells)	IC50 ([4]; Homo sapiens, OVCAR-3, OVCAR3 cells)
COc1cc2c(cc1OCCCC(=O)Nc1cc(C(=O)NC3CC3)n(C)c1)N=C[C@@H]1Cc3ccccc3CN1C2=O [(Ib-42)]	0.49 nM	0.39 nM	0.38 nM	0.32 nM				
COc1cc2c(cc1OCCCC(=O)Nc1cc(C(=O)Nc3ccc(-c4ccccc4)cc3)n(C)c1)N=C[C@@H]1Cc3ccccc3CN1C2=O [(Ib-43)]	0.013 nM	0.026 nM	0.008 nM	0.025 nM				
COc1cc2c(cc1OCCCC(=O)Nc1cc(C(=O)Nc3ccccn3)n(C)c1)N=C[C@@H]1Cc3ccccc3CN1C2=O [(Ib-44)]	0.085 nM	0.055 nM	0.045 nM	0.053 nM				
COc1cc2c(cc1OCCCC(=O)Nc1cc(C(=O)Nc3ccc(Cl)cn3)n(C)c1)N=C[C@@H]1Cc3ccccc3CN1C2=O [(Ib-45)]	0.085 nM	0.025 nM	0.032 nM	0.01 nM				
COc1cc2c(cc1OCCCC(=O)Nc1cn(C)c(C(=O)Nc3ccccc3)n1)N=C[C@@H]1Cc3ccccc3CN1C2=O [(Ib-48)]	0.18 nM	0.075 nM	0.039 nM	0.094 nM				
COc1cc2c(cc1OCCCC(=O)Nc1cc(C(=O)Nc3ccc(-c4cc(-c5ncco5)n(C)c4)cc3)n(C)c1)N=C[C@@H]1Cc3ccccc3CN1C2=O [(Ib-49)]	0.062 nM	0.16 nM	0.051 nM	0.32 nM				
COc1cc2c(cc1OCCCC(=O)Nc1cc(C(=O)Nc3ccc(OCc4ccccc4)cc3)n(C)c1)N=C[C@@H]1Cc3ccccc3CN1C2=O [(Ib-51)]	0.11 nM	0.037 nM	0.022 nM	0.7 nM				
COc1cc2c(cc1OCCCC(=O)Nc1cc(C(=O)Nc3ccc(N)cc3)n(C)c1)N=C[C@@H]1Cc3ccccc3CN1C2=O [(Ib-52)]	0.3 nM	0.45 nM	0.28 nM	0.63 nM				
COc1cc(-c2ccc(NC(=O)c3cc(NC(=O)CCCOc4cc5c(cc4OC)C(=O)N4Cc6ccccc6C[C@H]4C=N5)cn3C)c(OC)c2)ccc1N [(Ib-53)]	0.13 nM	0.092 nM	0.098 nM	0.22 nM				
COc1cc2c(cc1OCCCC(=O)Nc1cc(C(=O)Nc3ccc(-c4ccc(N)cc4)cc3)n(C)c1)N=C[C@@H]1Cc3ccccc3CN1C2=O [(Ib-54)]					0.05 nM	0.027 nM	0.007 nM	0.071 nM
